Test system: patients with Huntington's disease
Details: 45 mg bid

## CCCN1CCC(c2cccc(S(C)(=O)=O)c2)CC1 [pridopidine, 4-[3-(methylsulfonyl)phenyl]-1-propyl-piperidine]
BL dystonia score ≥4, completed 52 weeks, FIG. 16a, placebo 60.0%
  Responders, UHDRS TMS dystonia (improved or no change): 77.8%
BL dystonia score ≥4, completed 52 weeks, FIG. 16b, placebo […]
  Responders, UHDRS TMS dystonia (improved, change≥1): 66.7%
BL dystonia score ≥4, completed 52 weeks, placebo […]
  Responders, UHDRS-Limb Dystonia item (improved, change≥1): 77.2%
Placebo 66.7%
  Responders, chorea+dystonia items: 77.8%

Source: patent publication US12564582B2 (Prilenia Neurotherapeutics Ltd., priority 2016, dated 2026)
